Patent US20060217418A1, “Substituted alkyl amido piperidines” (priority 2001, published 2006)

Target: T1, rat MCH1 receptor (Rattus norvegicus, UniProt P97639)
T1 construct: operatively linked to DNA encoding the rat MCH1 receptor so as to permit expression thereof; expressed in transfected cells; host or cells: Human embryonic kidney Peak rapid 293 (Peakr293) cells, transient calcium phosphate transfection, membranes
Test: Radioligand binding assay at cloned rat MCH1 receptor ([3H]Compound A)
Settings: cloned rat MCH1, Peakr293 cell membranes, 0.08 nM [3H]Compound A, 25° C., 90 minutes; read-out: Ki(MCH-1)

T1 sequence (P97639 whole entry): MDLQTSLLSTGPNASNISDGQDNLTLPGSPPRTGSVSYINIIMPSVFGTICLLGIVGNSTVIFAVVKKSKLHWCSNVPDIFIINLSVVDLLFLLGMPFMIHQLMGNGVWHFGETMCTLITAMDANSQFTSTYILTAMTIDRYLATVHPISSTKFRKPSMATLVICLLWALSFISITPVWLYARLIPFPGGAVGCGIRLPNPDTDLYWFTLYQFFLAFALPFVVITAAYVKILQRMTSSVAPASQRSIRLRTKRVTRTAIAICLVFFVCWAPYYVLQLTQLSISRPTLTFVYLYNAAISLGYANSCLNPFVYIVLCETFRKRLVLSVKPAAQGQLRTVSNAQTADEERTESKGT

Structure (SMILES)	Ki
CC(C)C(=O)Nc1cccc(C2CCN(CCCNC(=O)C(C)c3ccc(Cl)cc3)CC2)n1 (centres unmarked) [Example 90, 2-(4-CHLOROPHENYL)-N-(3-{4-[6-(ISOBUTYRYLAMINO)-2-PYRIDINYL]-1-PIPERIDINYL} PROPYL)PROPANAMIDE]	52.2 nM
CCCC(=O)Nc1cc(C2CCN(CCCNC(=O)C(c3ccc(Cl)cc3)c3ccc(Cl)cc3)CC2)ccc1F [Example 108]	1.9 nM
CCC(=O)Nc1cccc(C2CCN(CCCNC(=O)C3(c4ccc(Cl)cc4)CCCC3)CC2)c1 [Example 62, 1-(4-CHLOROPHENYL)-N-(3-{4-[3-PROPIONYLAMINO)PHENYL]-1-PIPERIDINYL} PROPYL)CYCLOPENTANECARBOXAMIDE]	31.7 nM
O=C(Nc1cccc(C2CCN(CCCNC(=O)C3(c4ccc(Cl)cc4Cl)CC3)CC2)c1)C1CC1 [Example 117, N-[3-(4-{3-[(CYCLOPROPYLCARBONYL)AMINO]PHENYL}-1-PIPERIDINYL) PROPYL]-1-(2,4-DICHLOROPHENYL)CYCLOPROPANECARBOXAMIDE]	17.9 nM
Cc1ccc(NC(=O)C(C)C)cc1C1CCN(CCCNC(=O)C(C)(c2ccccc2)c2ccccc2)CC1 [Example 96]	2.6 nM
O=C(Nc1cccc(C2CCN(CCCNC(=O)C(c3ccccc3)(c3ccccc3)c3ccccc3)CC2)c1)C1CC1 [Example 114]	4 nM
CC(C)C(=O)Nc1cccc(C2CCN(CCCNC(=O)C3(c4ccc(F)cc4Cl)CCCC3)CC2)c1 [Example 38]	28.4 nM
CC(C)C(=O)Nc1ccc(F)c(C2CCN(CCCNC(=O)C3(c4ccc(F)cc4)CCCC3)CC2)c1 [Example 129]	4.5 nM
CC(C(=O)NCCCN1CCC(c2cccc(NC(=O)C3CC3)c2)CC1)c1ccc(Cl)cc1 (centres unmarked) [Example 116, N-{3-[1-(3-{[2-(4-CHLOROPHENYL)PROPANOYL]AMINO}PROPYL)-4-PIPERIDINYL] PHENYL}CYCLOPROPANECARBOXAMIDE]	18.9 nM
O=C(Nc1cccc(C2CCN(CCCNC(=O)C(c3ccccc3)c3ccccc3)CC2)c1)C1CC1 [Example 17]	1.8 nM
Cc1ccc(NC(=O)C(C)C)cc1C1CCN(CCCNC(=O)C2(c3ccc(Cl)cc3)CCC2)CC1 [Example 86]	3.2 nM
CC(C)C(=O)Nc1cccc(C2CCN(CCCNC(=O)C3(c4ccc(Cl)cc4)CC3)CC2)n1 [Example 76, 1-(4-CHLOROPHENYL)-N-(3-{4-[6-(ISOBUTYRYLAMINO)-2-PYRIDINYL]-1-PIPERIDINYL} PROPYL)CYCLOPROPANECARBOXAMIDE]	48 nM
CCC(=O)Nc1cccc(C2CCN(CCCNC(=O)C(c3ccc(Cl)cc3)c3ccc(Cl)cc3)CC2)c1 [Example 57, N-{3-[1-(3-{[2,2-BIS(4-CHLOROPHENYL)ACETYL]AMINO}PROPYL)-4-PIPERIDINYL] PHENYL}PROPANAMIDE]	0.5 nM
Cc1ccc(NC(=O)C(C)C)cc1C1CCN(CCCNC(=O)C(c2ccccc2)(c2ccccc2)c2ccccc2)CC1 [Example 94]	3.1 nM
CC(C)C(=O)Nc1ccc(F)c(C2CCN(CCCNC(=O)C3(c4ccc(Cl)cc4)CCCCC3)CC2)c1 [Example 130]	2.6 nM
Cc1ccc(NC(=O)C(C)C)cc1C1CCN(CCCNC(=O)C2(c3ccc(F)cc3)CCCC2)CC1 [Example 93]	4.9 nM
CCC(=O)Nc1cccc(C2CCN(CCCNC(=O)C(c3ccc(F)cc3)c3ccc(F)cc3)CC2)c1 [Example 21, N-{3-[1-(3-{[2,2-BIS(4-FLUOROPHENYL)ACETYL]AMINO}PROPYL)-4-PIPERIDINYL] PHENYL}PROPANAMIDE]	0.7 nM
CC(C)C(=O)Nc1cccc(C2CCN(CCCNC(=O)C(c3ccc(Cl)cc3)c3ccc(Cl)cc3)CC2)c1 [Example 2, N-{3-[1-(3-{[BIS(4-CHLOROPHENYL)ACETYL]AMINO}PROPYL)-4-PIPERIDINYL] PHENYL}-2-METHYLPROPANAMIDE]	2.4 nM

Structure (SMILES)	Ki
CC(C)(C)CC(=O)Nc1cccc(C2CCN(CCCNC(=O)C(c3ccccc3)c3ccccc3)CC2)c1 [Example 19]	23.4 nM
CC[C@@H](C(=O)NCCCN1CCC(c2cc(NC(=O)C(C)C)ccc2C)CC1)c1ccccc1 [Example 162, (2R)-N-(3-{4-[5-(isobutyrylamino)-2-methylphenyl]-1-piperidinyl}propyl)-2-phenylbutan amide]	8.6 nM
CCCC(=O)Nc1cccc(C2CCN(CCCNC(=O)C(C)c3ccc(Cl)cc3)CC2)c1 (centres unmarked) [Example 77, N-{3-[1-(3-{[2-(4-CHLOROPHENYL)PROPANOYL]AMINO}PROPYL)-4-PIPERIDINYL] PHENYL}BUTANAMIDE]	30.7 nM
CCCC(=O)Nc1cc(C2CCN(CCCNC(=O)C(c3ccccc3)c3ccccc3)CC2)ccc1F [Example 65]	4.9 nM
Cc1ccc(NC(=O)C(C)C)cc1C1CCN(CCCNC(=O)C2(c3ccc(Cl)cc3)CCCCC2)CC1 [Example 85]	4.6 nM
Cc1ccc(NC(=O)C(C)C)cc1C1CCN(CCCNC(=O)[C@@H](C)c2ccc(F)cc2)CC1 [Example 168, (2S)-2-(4-fluorophenyl)-N-(3-{4-[5-(isobutyrylamino)-2-methylphenyl]-1-piperidinyl}propyl) propanamide]	12.1 nM
CCN(CCCN1CCC(c2cccc(NC(=O)C(C)C)c2)CC1)C(=O)C(c1ccccc1)c1ccccc1 [Example 126]	3 nM
CC(=O)Nc1cccc(C2CCN(CCCNC(=O)C(C)(c3ccccc3)c3ccccc3)CC2)c1 [Example 103, N-(3-{4-[3-(ACETYLAMINO)PHENYL]-1-PIPERIDINYL}PROPYL)-2,2-DIPHENYL PROPANAMIDE]	8 nM
CCCC(=O)Nc1cccc(C2CCN(CCCNC(=O)C3(c4ccc(Cl)cc4)CC3)CC2)c1 [Example 69, N-(3-{4-[3-(butyrylamino)phenyl]-1-piperidinyl}propyl)-1-(4-chlorophenyl)cyclopropane carboxamide]	39.9 nM
CC(C)OC(=O)Nc1cccc(C2CCN(CCCNC(=O)C3(c4ccc(F)cc4Cl)CCCCC3)CC2)c1 [Example 147, ISOPROPYL 3-{1-[3-({[1-(2-CHLORO-4-FLUOROPHENYL)CYCLOHEXYL]CARBONYL} AMINO)PROPYL]-4-PIPERIDINYL}PHENYLCARBAMATE]	42 nM
CCCC(=O)Nc1cccc(C2CCN(CCCNC(=O)C(c3ccccc3)c3ccccc3)CC2)c1 [Example 5]	3.1 nM
CC(C)C(=O)Nc1ccc(F)c(C2CCN(CCCNC(=O)C(F)(F)c3ccccc3)CC2)c1 [Example 136]	48.7 nM
CC(C)C(=O)Nc1c(F)cc(F)c(C2CCN(CCCNC(=O)C(c3ccc(F)cc3)c3ccc(F)cc3)CC2)c1F [Example 173, N-{3-[1-(3-{[bis(4-fluorophenyl)acetyl]amino}propyl)-4-piperidinyl]-2,4,6-trifluorophenyl}-2-methylpropanamide]	2.5 nM
Cc1ccc(C(C(=O)NCCCN2CCC(c3cccc(NC(=O)OC(C)C)c3)CC2)c2ccc(C)cc2)cc1 [Example 145, ISOPROPYL 3-[1-(3-{[BIS(4-METHYLPHENYL)ACETYL]AMINO}PROPYL)-4-PIPERIDINYL]PHENYLCARBAMATE]	26.9 nM
CC(=O)Nc1cccc(C2CCN(CCCNC(=O)C(c3ccc(Cl)cc3)c3ccc(Cl)cc3)CC2)c1 [Example 55]	0.3 nM
COC(C(=O)NCCCN1CCC(c2cccc(NC(=O)C(C)C)c2)CC1)c1ccc(Cl)c(Cl)c1 (centres unmarked) [Example 39]	32.2 nM
CC(C)C(=O)Nc1c(F)cc(F)c(C2CCN(CCCNC(=O)C(c3ccccc3)c3ccccc3)CC2)c1F [Example 171, N-[3-(1-{3-[(diphenylacetyl)amino]propyl}-4-piperidinyl)-2,4,6-trifluorophenyl]-2-methylpropanamide]	9.1 nM
